Literature values, collected in PubChem BioAssay AID1259410 (Chemical Carcinogenesis Research Information System (CCRIS), 2018).

Tested on: rodent tumor promotion studies, tumor incidence
Assay: CCRIS tumor promotion studies

Compound: Nc1nc(-c2ccccc2)c(-c2ccccc2)s1
- outcome (Carcinogen: N-ETHYL-N-HYDROXYETHYLNITROSAMINE, 13147-25-6, Doses [Carcinogen]: 1000 PPM IN DRINKING WATER FOR 2 WK, Doses [Promoter]: 0, 1.06% IN DIET FOR 14 WK BEGINNING POST CARCINOGEN TREATMENT (STUDY DURATION: 32 WK), Route [Carcinogen]: ORAL, Route [Promoter]: ORAL, Species: RAT, Strain/Sex: WISTAR/MALE): kidney: renal cell tumor
- outcome (Carcinogen: N-ETHYL-N-HYDROXYETHYLNITROSAMINE, 13147-25-6, Doses [Carcinogen]: 1000 PPM IN DRINKING WATER FOR 2 WK, Doses [Promoter]: 0, 1.06% IN DIET FOR 30 WK BEGINNING POST CARCINOGEN TREATMENT (STUDY DURATION: 32 WK), Route [Carcinogen]: ORAL, Route [Promoter]: ORAL, Species: RAT, Strain/Sex: WISTAR/MALE): kidney: renal cell tumor

Compound: C=CCS(=O)(=O)CC=C
- outcome (Carcinogen: Vinyl carbamate, 15805-73-9, Doses [Carcinogen]: 60 mg/kg once 2 hr after inhibitor (Study duration: 25 wk), Doses [Promoter]: 50 mg/kg once at beginning of experiment (Study duration: 25 wk), Route [Carcinogen]: Intraperitoneal, Route [Promoter]: Oral, Species: Mouse, Strain/Sex: F1 (Big Blue x A/J) (43/?)/47/?)): lung: solid tumors (61 (42%), 135 (86.5%), p<0.01)

Compound: CCCCCCCCCC(=O)OC[C@H](CO)OC(=O)CCCCCCCCC
- outcome (Carcinogen: 7,12-DIMETHYLBENZ[A]ANTHRACENE, 57-97-6, Doses [Carcinogen]: 200 NMOL IN 200 µL OF ACETONE ONCE, Doses [Promoter]: 0, 2, 5 UMOL IN 20 µL ACETONE 2/D 5 D/WK FOR 20 WK BEGINNING 1 WK AFTER LAST CARCINOGEN DOSE (STUDY DURATION: 24 WK), Doses [Promoter]: 0, 2, 5 UMOL IN 20 µL ACETONE 2/D 5 D/WK FOR 20 WK BEGINNING 1 WK AFTER LAST CARCINOGEN DOSE (STUDY DURATION: 24 WK), Route [Carcinogen]: DERMAL, Route [Promoter]: DERMAL, Species: MOUSE, Strain/Sex: CD-1/FEMALE): skin: papilloma

Compound: N[C@@H](Cc1cc(I)c(Oc2cc(I)c(O)c(I)c2)c(I)c1)C(=O)O
- outcome (Carcinogen: AZOXYMETHANE, 25843-45-2, Doses [Carcinogen]: 7.4 MG/KG IN 0.9% SALINE 1/WK FOR 10 WK, Doses [Promoter]: 0, 0.2 UG/KG IN OLIVE OIL 1/2 D FOR 35 WK (STUDY DURATION: 35 WK), Route [Carcinogen]: SUBCUTANEOUS, Route [Promoter]: SUBCUTANEOUS, Species: RAT, Strain/Sex: WISTAR/MALE): colon: tumor
- outcome (Carcinogen: N-METHYL-N'-NITRO-N-NITROSOGUANIDINE, 70-25-7, Doses [Carcinogen]: 25 UG/ML IN DRINKING WATER FOR 25 WK, Doses [Promoter]: 0, 0.2 UG/KG BW IN OLIVE OIL 1/2 D BEGINNING POST CARCINOGEN TREATMENT AND CONTINUING FOR 26 WK (STUDY DURATION: 52 WK), Route [Carcinogen]: ORAL, Route [Promoter]: SUBCUTANEOUS, Species: RAT, Strain/Sex: WISTAR/MALE): stomach: adenocarcinoma

Compound: C=CC(C)(C)c1ccc2c3c(c[nH]c13)C[C@@H](CO)NC(=O)[C@H](C(C)C)N2C
- outcome (Carcinogen: DIMETHYLBENZ[A]ANTHRACENE, 57-97-6, Doses [Carcinogen]: 100 UG IN 100 µL ACETONE APPLIED TO THE BACK ONCE, Doses [Promoter]: 5 UG IN 100 ML ACETONE APPLIED TO THE BACK 2/WK FOR 15 WK BEGINNING 1 WK POST CARCINOGEN DOSE THEN 10 UG 2/WK FOR 15 WK, Route [Carcinogen]: DERMAL, Route [Promoter]: DERMAL, Species: MOUSE, Strain/Sex: CD-1/FEMALE): skin: papilloma

Compound: CCCCCCCC/C=C\CCCCCCCC(=O)O
- outcome (Carcinogen: 7,12-DIMETHYLBENZ(A)ANTHRACENE, Doses [Carcinogen]: TOP, Route [Carcinogen]: DERMAL, Route [Promoter]: DERMAL, Species: MOUSE, Strain/Sex: MALE,FEMALE): integumentary system (skin)

Compound: CCCCCCCCCc1ccc(O)cc1
- outcome (Carcinogen: 2',3-dimethyl-4-aminobiphenyl, 13394-86-0, Doses [Carcinogen]: 50 mg/kg every other wk for 10 injections from 7 wks of age, study duration 64 wks, Doses [Promoter]: 0, 25, 250, 2000 ppm in diet from 3 wks of age for 3 wks, Route [Carcinogen]: Subcutaneous, Route [Promoter]: Oral, Species: Rat, Strain/Sex: F344/Male (15-20/Group)): prostate: adenocarcinoma, no effect

Compound: CCCCCCCCCC(=O)OC
- outcome (Carcinogen: 7,12-DIMETHYLBENZ(A)ANTHRACENE, Doses [Carcinogen]: TOP, Route [Carcinogen]: DERMAL, Route [Promoter]: DERMAL, Species: MOUSE, Strain/Sex: FEMALE): integumentary system (skin)

Compound: CC(=O)Oc1ccc(C(c2ccc(OC(C)=O)cc2)c2ccccn2)cc1
- outcome (Carcinogen: AZOXYMETHANE, 25843-45-2, Doses [Carcinogen]: 15 MG/KG TWICE ON DAYS 1 AND 5 OF TREATMENT, Doses [Promoter]: 0, 4.3, 43 MG/KG/D 6 D/WK FOR 13 WK (STUDY DURATION: 13 WK), Doses [Promoter]: 0, 4.3, 43 MG/KG/D 6 D/WK FOR 13 WK (STUDY DURATION: 13 WK), Route [Carcinogen]: INTRAPERITONEAL, Route [Promoter]: GAVAGE, Species: RAT, Strain/Sex: WISTAR/MALE): colon: adenocarcinoma
